Laboratory results taken from paper doi:10.1101/2024.05.22.595443v1 (biorxiv, 2024).

Experiments:
PRMT5:MEP50 complex = PRMT5:MEP50 complex (Homo sapiens, UniProt O14744); assay: SPR; format: binding
EZH2 = EZH2 (Homo sapiens, UniProt Q15910); assay: SPR; format: binding
Chain of EZH2 (Q15910 whole entry): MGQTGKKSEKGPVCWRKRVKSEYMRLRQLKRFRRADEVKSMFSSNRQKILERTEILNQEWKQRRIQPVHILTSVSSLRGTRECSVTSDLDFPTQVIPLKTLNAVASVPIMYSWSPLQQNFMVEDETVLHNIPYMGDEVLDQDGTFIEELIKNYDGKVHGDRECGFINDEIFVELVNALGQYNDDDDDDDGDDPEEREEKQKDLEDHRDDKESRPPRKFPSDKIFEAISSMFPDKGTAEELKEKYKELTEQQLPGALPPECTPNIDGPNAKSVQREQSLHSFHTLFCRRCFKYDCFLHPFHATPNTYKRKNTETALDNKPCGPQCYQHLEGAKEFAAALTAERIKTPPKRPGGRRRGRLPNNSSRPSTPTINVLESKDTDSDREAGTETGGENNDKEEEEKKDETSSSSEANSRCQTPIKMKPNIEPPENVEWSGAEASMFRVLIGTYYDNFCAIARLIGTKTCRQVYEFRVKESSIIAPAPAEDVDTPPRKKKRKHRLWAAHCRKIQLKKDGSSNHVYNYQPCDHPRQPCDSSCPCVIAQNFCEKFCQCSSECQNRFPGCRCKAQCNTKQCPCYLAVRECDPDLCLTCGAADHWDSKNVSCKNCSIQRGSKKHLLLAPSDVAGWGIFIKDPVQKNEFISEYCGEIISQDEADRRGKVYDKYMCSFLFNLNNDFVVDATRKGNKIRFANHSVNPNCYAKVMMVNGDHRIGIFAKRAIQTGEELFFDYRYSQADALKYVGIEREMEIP

Chain of PRMT5:MEP50 complex (O14744 2-637): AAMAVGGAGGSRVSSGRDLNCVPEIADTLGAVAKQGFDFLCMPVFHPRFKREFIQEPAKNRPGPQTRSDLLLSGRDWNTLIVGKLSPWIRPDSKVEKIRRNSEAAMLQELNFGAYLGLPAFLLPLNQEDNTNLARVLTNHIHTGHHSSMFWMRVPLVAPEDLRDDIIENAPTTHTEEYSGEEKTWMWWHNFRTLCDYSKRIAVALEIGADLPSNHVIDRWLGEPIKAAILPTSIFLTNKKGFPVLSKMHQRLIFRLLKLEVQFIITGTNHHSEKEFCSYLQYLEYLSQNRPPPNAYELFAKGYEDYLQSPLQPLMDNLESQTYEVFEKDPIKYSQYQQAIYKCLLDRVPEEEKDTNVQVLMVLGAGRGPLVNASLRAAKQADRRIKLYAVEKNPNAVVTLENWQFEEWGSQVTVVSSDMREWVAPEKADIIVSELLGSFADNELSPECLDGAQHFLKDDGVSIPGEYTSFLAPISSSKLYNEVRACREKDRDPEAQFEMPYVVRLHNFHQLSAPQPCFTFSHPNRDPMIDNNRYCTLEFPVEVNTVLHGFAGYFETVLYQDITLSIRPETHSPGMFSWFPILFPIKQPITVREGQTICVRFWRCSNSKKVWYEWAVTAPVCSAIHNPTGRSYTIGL
Chain of PRMT5:MEP50 complex (Q9BQA1 whole entry partner): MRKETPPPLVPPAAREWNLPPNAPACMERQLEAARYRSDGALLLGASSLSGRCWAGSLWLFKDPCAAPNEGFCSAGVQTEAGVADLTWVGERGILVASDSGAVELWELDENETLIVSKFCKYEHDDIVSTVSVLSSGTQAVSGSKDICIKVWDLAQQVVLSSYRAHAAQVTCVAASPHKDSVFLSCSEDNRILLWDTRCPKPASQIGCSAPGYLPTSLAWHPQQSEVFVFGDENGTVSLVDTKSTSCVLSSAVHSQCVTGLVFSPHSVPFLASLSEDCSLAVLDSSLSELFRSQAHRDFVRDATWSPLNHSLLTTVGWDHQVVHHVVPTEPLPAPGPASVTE

Compound: O=c1oc2c(O)c(O)cc3c(=O)oc4c(O)c(O)cc1c4c23 [Ellagic acid]
- Kd (PRMT5:MEP50 complex): 65.4 µM
- Kd (EZH2): 3.28 µM
